# Reference: US11690825B2 (BOARD OF REGENTS, THE UNIVERSITY OF TEXAS SYSTEM, priority 2016, dated 2023)
# Legend:
# [1] = tested on: membrane fractions of human endothelial cells (EC); assay: 20-APheDa UV crosslinking / click-chemistry band competition; assay type: binding; settings: excess amounts of competitor
# Procedure: When incubated with membrane fractions of human endothelial cells (EC) followed by 15 min of UV (365 nm) crosslinking and 1 h incubation with the click reagent (DBCO-IRdye 800CW, LiCor), an intense band of approximately 47-49 kDa was detected (FIG. 8c).
# [2] = tested on: mouse models of hypertension; assay: DOX mouse model of hypertension: blood pressure, ACE expression, vascular remodeling; assay type: in vivo
# Procedure: Systolic blood pressure measurements were taken using the CODA tail-cuff system (Kent Scientific), which utilizes volume pressure recording sensor technology. Mice were acclimated to the machine for one week prior to day 0 and blood pressure was monitored throughout the length of the experiment. […] At the end of the experiment, mice were anesthetized with ketamine (70 mg/kg) and xylazine (70 mg/kg) and laporotomy was performed. Preglomerular arteries were microdissected and collected for western blot analysis, lipid extraction and functional studies. Measurements of Media Thickness, Media to Lumen Ratio, and Medial Cross-Sectional Area (CSA) Segments of renal interlobar arteries were dissected and mounted on a pressurized myograph and equilibrated for 1 h in oxygenated krebs buffer at 37° C. The operator was blinded to treatments except for the blood pressure range of the animal. Lumen diameters from normotensive animals were determined at 100 mmHg and hypertensive animals at 140 mmHg. Measurements of outer diameter (OD) and inner diameter (ID) under passive conditions were used to calculate media thickness [(OD−ID)/2], media to lumen ratio (OD−ID)/ID], and medial cross-sectional area [CSA=(π/4)×(OD2−ID2)] […] Expression of ACE. […] SDS-polyacrylamide gels were transferred to Tran-Blot Turbo Mini PVDF membranes (Bio-Rad, Hercules, Calif.) followed by blocking buffer (Li-Cor, Lincoln, Nebr.) and subsequent incubation with primary and secondary antibodies.
# Cyp4a14−/− mice = assay: High-fat diet in Cyp4a14−/− mice overexpressing 20-HETE; assay type: in vivo, mouse
# JCR rats = assay: Coronary collateral growth in rat model of metabolic syndrome; assay type: in vivo; settings: JCR rats compared with SD rats
# Water solubility = assay type: physicochemical
# Text: As used herein, the term “water soluble” means that the compound dissolves in water at least to the extent of 0.010 mole/liter or is classified as soluble according to literature precedence.
# [3] = tested on: arteries (responsiveness to the constrictor activity of phenylephrine); assay: Vasoactivity bioassay: ability of 20-HETE to enhance responsiveness of arteries to phenylephrine (PE) constriction; settings: for Fold Change from 20-HETE: negative values = 20-HETE antagonists, positive values = agonists
# ACE = ACE transcription (mRNA) in endothelial cells; assay type: cell-based, human; settings: EC
# [4] = tested on: TAFI, thrombin-activated fibrinolysis inhibitor; settings: endothelial cells; cited from earlier work
# [5] = tested on: NO bioavailability and ACE expression; settings: cited from earlier work
# GPR75 [6] = target: T1, GPR75 (Homo sapiens, UniProt O95800); assay: β-arrestin GPCR recruitment assay, GPR75 expressed in CHO cells; assay type: cell-based; parameters: expressed in transfected cells; host or cells: CHO cells
# Text: β-arrestin represents a robust and widely used screening technology for GPCR-ligand pairing. GPCR-mediated β-arrestin recruitment is also recognized as a distinct intracellular signaling pathway, and ligand-receptor interactions may show a bias toward β-arrestin over classical GPCR signaling pathways.
# Target sequence in this assay (O95800 whole entry): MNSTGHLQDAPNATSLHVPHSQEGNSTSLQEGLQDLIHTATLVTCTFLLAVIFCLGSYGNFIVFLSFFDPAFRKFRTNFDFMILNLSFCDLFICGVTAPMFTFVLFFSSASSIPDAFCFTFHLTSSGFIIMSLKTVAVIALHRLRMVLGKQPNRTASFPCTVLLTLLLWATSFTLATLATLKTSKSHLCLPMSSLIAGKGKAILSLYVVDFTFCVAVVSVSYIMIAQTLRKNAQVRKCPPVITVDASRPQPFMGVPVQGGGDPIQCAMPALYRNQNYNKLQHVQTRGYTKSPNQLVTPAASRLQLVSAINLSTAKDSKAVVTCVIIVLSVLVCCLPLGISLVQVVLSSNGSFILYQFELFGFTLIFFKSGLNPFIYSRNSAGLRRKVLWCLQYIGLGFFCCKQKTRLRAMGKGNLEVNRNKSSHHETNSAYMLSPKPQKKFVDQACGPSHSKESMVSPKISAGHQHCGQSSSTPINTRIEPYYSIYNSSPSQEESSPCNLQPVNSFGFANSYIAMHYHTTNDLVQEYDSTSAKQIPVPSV
# EGFR = EGFR tyrosine phosphorylation and c-Src association in EC
# GPR75 [7] = target: T1, GPR75; assay: GPR75 immunoprecipitation in EC (HMVEC); assay type: cell-based; parameters: endogenous in cells; host or cells: HMVEC (human microvascular endothelial cells); EA.hy926 lysate is also mentioned; settings: 10 nM for 5 min
# Text: Immunoprecipitation of GPR75 in EC further indicated its association with Gαq/11, GIT1 and HIC-5 (FIG. 11a). […] No change in GPR75-Gαq/11 association was detected in EC (FIG. 11b).
# Immunoprecipitation. […] Western Blot Analysis.
# Target sequence in this assay (O95800 whole entry): as above
# Target sequence in this assay (Q9Y2X7 whole entry partner): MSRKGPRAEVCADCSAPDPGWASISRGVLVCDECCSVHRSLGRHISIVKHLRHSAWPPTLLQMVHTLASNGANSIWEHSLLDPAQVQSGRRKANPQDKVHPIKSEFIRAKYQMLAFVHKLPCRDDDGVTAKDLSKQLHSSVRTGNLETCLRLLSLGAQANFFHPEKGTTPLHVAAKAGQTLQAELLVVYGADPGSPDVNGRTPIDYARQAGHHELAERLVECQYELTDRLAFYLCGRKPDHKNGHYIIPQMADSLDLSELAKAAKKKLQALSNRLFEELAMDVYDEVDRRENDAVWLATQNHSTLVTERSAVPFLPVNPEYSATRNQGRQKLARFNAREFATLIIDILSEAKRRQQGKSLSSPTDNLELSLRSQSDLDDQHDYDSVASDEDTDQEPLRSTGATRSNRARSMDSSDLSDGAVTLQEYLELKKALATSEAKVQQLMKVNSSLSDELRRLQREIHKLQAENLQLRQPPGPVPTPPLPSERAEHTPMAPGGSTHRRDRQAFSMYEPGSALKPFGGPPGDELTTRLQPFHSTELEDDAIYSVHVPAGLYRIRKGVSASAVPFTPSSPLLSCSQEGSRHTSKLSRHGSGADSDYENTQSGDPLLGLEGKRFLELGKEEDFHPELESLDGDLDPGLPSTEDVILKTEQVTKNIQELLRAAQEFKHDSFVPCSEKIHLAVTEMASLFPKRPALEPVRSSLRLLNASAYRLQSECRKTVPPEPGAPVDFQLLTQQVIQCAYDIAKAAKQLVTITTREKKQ
# [8] = Cyp4a14−/− mice on a high-fat diet
compound,measurement,setting,value
"CCCCC/C=C\C[C@H](O)/C=C/C=C\C/C=C\CCCC(=O)O [12(S)-HETE, 12(S)-hydroxyeicosa-5(Z),8(Z),10(E),14(Z)-tetraenoic acid]",competition with formation of the 47-49 kDa 20-APheDa band,[1],not
"O=C(O)CNC(=O)CCCC/C=C\CCCCCCC/C=C\CCCCO [20-6,15-HEDGE, 2-(20-hydroxyeicosa-6(Z),15(Z)-dienamido)acetic acid]",ACE expression in preglomerular microvessels (PGMV),[2]; compared with lisinopril and losartan,decreases ACE expression
same,systolic blood pressure,"[2]; in combination with DOX, several time points",decreases systolic blood pressure as effectively as the ACE inhibitors lisinopril and losartan
same,vascular remodeling,"[2]; mouse, in vivo",decreasing vascular remodeling
"COCCOCCOCCOCCOCCOCCOC(=O)CCCC/C=C\CCCCCCC/C=C\CCCCO [20-6,15-SOLA, 2,5,8,11,14,17-hexaoxanonadecan-19-yl 20-hydroxyeicosa-6(Z),15(Z)-dienoate]",high-fat diet-induced hyperglycemia,Cyp4a14−/− mice; Cyp4a14−/− mice,normalized
same,high-fat diet-induced obesity,Cyp4a14−/− mice; Cyp4a14−/− mice,attenuates
same,hyperinsulinemia,Cyp4a14−/− mice; [8],alleviates
same,hyperleptinemia,Cyp4a14−/− mice; [8],alleviates
same,impaired coronary collateral growth (CCG),JCR rats,attenuates
same,water solubility,Water solubility,water-soluble
"C[C@H](O)CCC/C=C\CCCCCCC/C=C\CCCC(=O)[O-].[Na+] [Analog 1, sodium 19(S)-hydroxyeicosa-5(Z),14(Z)-dienoate]",Fold Change from 20-HETE,[3]; fold change of EC50 to PE,−0.68
"C[C@@H](O)CCC/C=C\CCCCCCC/C=C\CCCC(=O)[O-].[Na+] [Analog 2, 19(R)-Hydroxyeicosa-5(Z),14(Z)-dienoate]",Fold Change from 20-HETE,[3]; fold change of EC50 to PE,−0.85
"[N-]=[N+]=NC[C@H](O)CCC/C=C\CCCCCCC/C=C\CCCC(=O)[O-].[Na+] [Analog 3, Sodium 20-azido-19(R)-hydroxyeicosa-5(Z),14(Z)-dienoate]",Fold Change from 20-HETE,[3]; fold change of EC50 to PE,−5.69
"[N-]=[N+]=NC[C@@H](O)CCC/C=C\CCCCCCC/C=C\CCCC(=O)[O-].[Na+] [Analog 4, sodium 20-azido-19(S)-hydroxyeicosa-5(Z),14(Z)-dienoate]",Fold Change from 20-HETE,[3]; fold change of EC50 to PE,−5.45
"[N-]=[N+]=N[C@H](CO)CCC/C=C\CCCCCCC/C=C\CCCC(=O)[O-].[Na+] [Analog 5, Sodium 19(S)-azido-20-hydroxyeicosa-5(Z),14(Z)-dienoate]",Fold Change from 20-HETE,[3]; fold change of EC50 to PE,0.16
"[N-]=[N+]=N[C@@H](CO)CCC/C=C\CCCCCCC/C=C\CCCC(=O)[O-].[Na+] [Analog 6, Sodium 19(R)-azido-20-hydroxyeicosa-5(Z),14(Z)-dienoate]",Fold Change from 20-HETE,[3]; fold change of EC50 to PE,0.50
"C[C@H](O)CCC/C=C\CCCCCCC/C=C\CCCC(=O)NCC(=O)[O-].[Na+] [Analog 7, Sodium (19(S)-hydroxyeicosa-5(Z),14(Z)-dienoyl)glycinate]",Fold Change from 20-HETE,[3]; fold change of EC50 to PE,−3.46
"C[C@@H](O)CCC/C=C\CCCCCCC/C=C\CCCC(=O)NCC(=O)[O-].[Na+] [Analog 8, Sodium (19(R)-hydroxyeicosa-5(Z),14(Z)-dienoyl)glycinate]",Fold Change from 20-HETE,[3]; fold change of EC50 to PE,−4.67
"C[C@H](O)CCC/C=C\CCCCCCC/C=C\CCCC(=O)N[C@@H](CC(=O)[O-])C(=O)[O-].[Na+].[Na+] [Analog 9, disodium (19(S)-hydroxyeicosa-5(Z),14(Z)-dienoyl)-L-aspartate]",Fold Change from 20-HETE,[3]; fold change of EC50 to PE,−0.59
"C[C@@H](O)CCC/C=C\CCCCCCC/C=C\CCCC(=O)N[C@@H](CC(=O)[O-])C(=O)[O-].[Na+].[Na+] [Analog 10, Disodium (19(R)-hydroxyeicosa-5(Z),14(Z)-dienoyl)-L-aspartate]",Fold Change from 20-HETE,[3]; fold change of EC50 to PE,−2.03
"CC(O)CCCCCCCCCCCC/C=C\CCCC(=O)[O-].[Na+] (centres unmarked) [Analog 11, Sodium 19-hydroxyeicosa-5(Z)-enoate]",Fold Change from 20-HETE,[3]; fold change of EC50 to PE,−1.66
"CC(O)CCC/C=C\CCCCCCCCCCCCC(=O)[O-].[Na+] (centres unmarked) [Analog 12, Sodium 19-hydroxyeicosa-14(Z)-enoate]",Fold Change from 20-HETE,[3]; fold change of EC50 to PE,0.79
"CC(O)CCCCCCCCCCCC/C=C\CCCC(=O)NCC(=O)[O-].[Na+] (centres unmarked) [Analog 13, Sodium (19-hydroxyeicosa-5(Z)-enoyl)glycinate]",Fold Change from 20-HETE,[3]; fold change of EC50 to PE,−2.19
"CC(O)CCC/C=C\CCCCCCCCCCCCC(=O)NCC(=O)[O-].[Na+] (centres unmarked) [Analog 14, Sodium (19-hydroxyeicosa-14(Z)-enoyl)glycinate]",Fold Change from 20-HETE,[3]; fold change of EC50 to PE,−2.56
"CCC(O)CC/C=C\CCCCCCC/C=C\CCCC(=O)[O-].[Na+] (centres unmarked) [Analog 15, Sodium 18-hydroxyeicosa-5(Z),14(Z)-dienoate]",Fold Change from 20-HETE,[3]; fold change of EC50 to PE,−2.17
"CCC(O)CC/C=C\CCCCCCC/C=C\CCCC(=O)NCC(=O)[O-].[Na+] (centres unmarked) [Analog 16, Sodium (18-hydroxyeicosa-5(Z),14(Z)-dienoyl)glycinate]",Fold Change from 20-HETE,[3]; fold change of EC50 to PE,−1.13
"CC(C)(O)CCC/C=C\CCCCCCC/C=C\CCCC(=O)NCC(=O)[O-].[Na+] [Analog 18, Sodium 2-(19-hydroxy-19-methyleicosa-5(Z),14(Z)-dienamido)acetate]",Fold Change from 20-HETE,[3]; fold change of EC50 to PE,−1.16
"O=C([O-])CCC/C=C\CCCCCCC/C=C\CCCCO.[Na+] [Analog 19, Sodium 19-hydroxynonadeca-5(Z),14(Z)-dienoate]",Fold Change from 20-HETE,[3]; fold change of EC50 to PE,−0.68
"O=C([O-])CNC(=O)CCC/C=C\CCCCCCC/C=C\CCCCO.[Na+] [Analog 20, sodium (19-hydroxynonadeca-5(Z),14(Z)-dienoyl)glycinate]",Fold Change from 20-HETE,[3]; fold change of EC50 to PE,−0.74
"O=C(O)CCC/C=C\C/C=C\C/C=C\C/C=C\CCCCCO [Analog 20-HETE, 20-hydroxyeicosa-5(Z),8(Z),11(Z),14(Z)-tetraenoic acid]",competition with formation of the 47-49 kDa 20-APheDa band,[1],competed with
same,ACE transcription (ACE mRNA),ACE,increase in ACE mRNA
same,induction of TAFI expression,[4],2-3 fold
same,concentration range of maximal changes in NO bioavailability and ACE expression,[5],5 to 10 nmol/L
same,GPR75 activation (β-arrestin recruitment),GPR75 [6],activated GPR75
same,association of c-Src with EGFR,EGFR; EC,increased
same,association of c-Src with GIT1,EGFR; EC,decreased
same,increase of tyrosine phosphorylation of EGFR,EGFR; EC transduced with control siRNA,1.99±0.16 fold
same,increase in EGFR phosphorylation,EGFR; FIG. 12d,2-3 fold
same,GPR75-HIC-5 dissociation,GPR75 [7],60%
"CC(O)CCC/C=C\CCCCCCC/C=C\CCCc1nnn[nH]1 (centres unmarked) [Analog 21, 19-(1H-Tetrazol-5-yl)nonadeca-6(Z),15(Z)-dien-2-ol]",Fold Change from 20-HETE,[3]; fold change of EC50 to PE,−0.78
"[N-]=[N+]=NC[C@@H](O)CCC/C=C\CCCCCCC/C=C\CCCC(=O)NS(=O)(=O)c1ccc(NC(=O)CCc2ccc(C(=O)c3ccccc3)cc2)cc1 [PCL, 20-azido-N-((4-(3-(4-benzoylphenyl)propanamido)phenyl)sulfonyl)-19(S)-hydroxyeicosa-5(Z),14(Z)-dienamide]","block of 20-HETE-mediated sensitization of PE vasoconstriction, change of EC50 to PE",[3]; FIG. 8b,4 fold
same,Fold Change from 20-HETE,[3]; fold change of EC50 to PE,−3.28
CCL5: a proposed GPR75 ligand,ACE transcription (ACE mRNA),ACE,did not induce
"Sodium 20-azido-19(R)-hydroxyeicosa-5(Z),14(Z)-dienoate [Analog 3]",Fold increase/decrese from 20-HETE,"[3]; Table 2, fold change of EC50 to PE",−6.78
